Assay results reported in patent US20080261933A1, “COMBINATION OF PROGESTERONE-RECEPTOR ANTAGONIST TOGETHER WITH A LUTEIN-HORMONE-RELEASING HORMONE AGONIST AND ANTAGONIST FOR USE IN BRCA MEDIATED DISEASES” (priority 2007, published 2008).

Experiments:
progesterone receptor [1] = molecular target: T1, progesterone receptor (Homo sapiens, UniProt P06401); details: Fuhrmann et al., J. Med. Chem. 2000; cited from earlier work
T1 sequence (P06401 1-933): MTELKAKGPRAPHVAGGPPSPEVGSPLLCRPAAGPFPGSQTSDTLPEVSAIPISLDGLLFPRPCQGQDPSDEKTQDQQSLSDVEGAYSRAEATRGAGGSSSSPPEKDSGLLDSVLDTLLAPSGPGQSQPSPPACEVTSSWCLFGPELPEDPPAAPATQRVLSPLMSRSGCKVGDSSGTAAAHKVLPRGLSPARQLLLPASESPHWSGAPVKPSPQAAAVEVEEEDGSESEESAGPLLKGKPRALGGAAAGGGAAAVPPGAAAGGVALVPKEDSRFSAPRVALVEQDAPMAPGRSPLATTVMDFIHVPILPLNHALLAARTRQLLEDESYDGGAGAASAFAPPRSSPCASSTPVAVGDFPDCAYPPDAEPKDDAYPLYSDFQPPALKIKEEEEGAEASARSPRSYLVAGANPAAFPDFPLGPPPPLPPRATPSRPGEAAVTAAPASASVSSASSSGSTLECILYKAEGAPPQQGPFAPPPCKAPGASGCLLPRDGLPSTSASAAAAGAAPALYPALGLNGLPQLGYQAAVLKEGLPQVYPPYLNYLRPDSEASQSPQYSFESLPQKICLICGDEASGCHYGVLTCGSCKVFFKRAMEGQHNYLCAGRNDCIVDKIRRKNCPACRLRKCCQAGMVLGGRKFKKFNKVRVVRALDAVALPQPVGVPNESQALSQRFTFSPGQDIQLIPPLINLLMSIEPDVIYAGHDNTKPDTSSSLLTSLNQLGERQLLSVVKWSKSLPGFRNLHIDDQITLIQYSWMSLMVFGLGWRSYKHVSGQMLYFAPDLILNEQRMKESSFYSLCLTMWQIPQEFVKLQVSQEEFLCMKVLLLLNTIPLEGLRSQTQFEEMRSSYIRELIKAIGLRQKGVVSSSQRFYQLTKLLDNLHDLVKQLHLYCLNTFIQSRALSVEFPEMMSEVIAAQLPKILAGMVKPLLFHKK

progesterone receptor [2] = molecular target: T1, progesterone receptor; assay: Endocrinological profile of the progesterone-receptor antagonist
Source text: has high antiprogestagenic activity with little or no other endocrinological effects (Fuhrmann, U. et al., J. Med. Chem. 2000, 43, 5010-5016).

tumor cells = assay: Apoptosis of tumor cells
Source text: Such other hormone-dependent diseases may include ovarian cancer, endometrial cancer, myeloma, myoma, lung cancer, meningioma, i.e., diseases which substantially originate or are influenced by the presence of hormone receptors and/or hormone-dependent pathways.

[3] = test system: mammary tumors in Brca1/p53-deficient mice; details: mice with BRCA1- or BRCA2 inactivated in mammary glands; cited from earlier work
glucocorticoid = details: causes severe side effects; cited from earlier work
[4] = oral; cited from earlier work

Row | SMILES | antiprogestagenic activity (progesterone receptor [1]) | other endocrinological effects (progesterone receptor [1]) | endocrine side effects such as androgen, estrogen or antiglucocorticoid activity (progesterone receptor [2]) | apoptosis of tumor cells (tumor cells) | development of mammary tumors [3] | anti-glucocorticoid activity (glucocorticoid) | bioavailability when administered orally [4]
1 | CC(=O)c1ccc([C@H]2C[C@@]3(C)[C@@H](CC[C@@]3(O)C(F)(F)C(F)(F)F)[C@@H]3CCC4=CC(=O)CCC4=C32)cc1 [ZK230211, 11β-(4-acetylphenyl)-17β-hydroxy-17α-(1,1,2,2,2-pentafluoroethyl)-estra-4,9-dien-3-one] | high | little or no | only very weak or no | increased apoptosis |  |  | 
2 | CC#C[C@]1(O)CC[C@H]2[C@@H]3CCC4=CC(=O)CCC4=C3[C@@H](c3ccc(N(C)C)cc3)C[C@@]21C [mifepristone] |  |  |  |  | blocks the development of mammary tumors | strong | poor
